# In patent US20080076751A1, “Azetidinone Derivatives and Methods of Use Thereof” (priority 2006, published 2008):
# What was measured:
# NPC1L1 = NPC1L1 (Rattus norvegicus, UniProt Q6T3U3); assay: NPC1L1 binding assay (BODIPY-labeled glucuronidated ezetimibe competition), rat
# human NPC1L1 = biological target: T1, human NPC1L1 (Homo sapiens, UniProt Q9UHC9); assay: NPC1L1 binding assay (BODIPY-labeled glucuronidated ezetimibe competition), human; settings: HEK-293 cells expressing human NPC1L1, 4 hours at 37° C.
# T1 construct: expressed in transfected cells; host or cells: HEK-293 (geneticin selection)
# T1 sequence (Q9UHC9 22-1359): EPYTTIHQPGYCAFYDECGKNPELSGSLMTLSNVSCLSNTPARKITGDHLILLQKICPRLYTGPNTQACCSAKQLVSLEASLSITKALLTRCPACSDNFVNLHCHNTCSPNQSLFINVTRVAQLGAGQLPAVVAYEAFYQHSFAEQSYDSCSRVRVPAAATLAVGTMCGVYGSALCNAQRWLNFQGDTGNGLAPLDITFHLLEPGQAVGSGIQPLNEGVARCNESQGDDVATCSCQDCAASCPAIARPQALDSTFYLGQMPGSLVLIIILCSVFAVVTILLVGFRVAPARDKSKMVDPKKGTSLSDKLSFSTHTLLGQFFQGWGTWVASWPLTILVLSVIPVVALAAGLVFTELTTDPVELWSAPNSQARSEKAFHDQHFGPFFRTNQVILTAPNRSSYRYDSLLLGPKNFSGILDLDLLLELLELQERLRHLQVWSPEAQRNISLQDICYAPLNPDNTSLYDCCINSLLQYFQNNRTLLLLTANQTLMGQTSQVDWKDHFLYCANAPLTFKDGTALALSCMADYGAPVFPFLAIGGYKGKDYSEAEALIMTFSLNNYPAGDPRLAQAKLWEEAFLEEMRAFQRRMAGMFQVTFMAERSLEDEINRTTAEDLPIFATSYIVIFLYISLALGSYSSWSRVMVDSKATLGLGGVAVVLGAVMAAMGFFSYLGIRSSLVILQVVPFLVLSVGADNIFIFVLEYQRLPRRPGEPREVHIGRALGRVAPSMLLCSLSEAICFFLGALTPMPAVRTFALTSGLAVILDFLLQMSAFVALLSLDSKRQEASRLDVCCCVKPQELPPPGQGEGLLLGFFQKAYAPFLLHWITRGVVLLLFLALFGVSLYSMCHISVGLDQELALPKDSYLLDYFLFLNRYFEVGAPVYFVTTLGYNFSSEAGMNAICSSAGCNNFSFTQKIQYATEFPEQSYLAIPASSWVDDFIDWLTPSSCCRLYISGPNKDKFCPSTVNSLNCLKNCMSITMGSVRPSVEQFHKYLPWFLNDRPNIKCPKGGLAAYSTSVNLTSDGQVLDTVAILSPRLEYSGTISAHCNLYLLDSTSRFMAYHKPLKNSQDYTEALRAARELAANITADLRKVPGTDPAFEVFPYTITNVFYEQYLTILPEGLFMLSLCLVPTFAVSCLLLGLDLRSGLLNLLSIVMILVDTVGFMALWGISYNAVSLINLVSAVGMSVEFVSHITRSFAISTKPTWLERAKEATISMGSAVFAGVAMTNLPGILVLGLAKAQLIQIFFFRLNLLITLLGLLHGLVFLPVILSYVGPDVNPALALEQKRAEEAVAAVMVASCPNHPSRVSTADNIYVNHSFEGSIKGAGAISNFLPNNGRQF
# Experimental: HEK-293 cells expressing human NPC1L1 were plated into 384-well black/clear plates (BD Biosciences, Bedford Mass.) for binding experiments the following day. Cell growth media (DMEM, 10% fetal calf serum, 1 mg/mL geneticin, 100 Units/mL penicillin) was aspirated. Cell growth media ([…]) containing 250 nM BODIPY-labeled glucuronidated ezetimibe was added to each well. Cell growth media ([…]) containing the indicated concentration of compound was then added to the wells. Unlabeled glucuronidated ezetimibe ([…]) was used to determine nonspecific binding. The binding reaction was allowed to proceed for 4 hours at 37° C. Subsequently the cell growth media was aspirated and the cells washed once with PBS. The remaining fluorescent labeled glucuronidated ezetimibe bound to the cells was quantified using a FlexStation plate reader (Molecular Devices, Sunnyvale Calif.) to measure fluorescence intensity. Ki values were determined from competition binding curves (n=4 for each point) using Prism and Activity Base software.
# rat VR1 = biological target: T2, rat VR1 (Rattus norvegicus, UniProt O35433); assay: TRPV1 screening assay (FLIPR), rat VR1 % activation at single concentration; format: cell-based
# T2 construct: expressed in transfected cells; host or cells: HEK293-TetOFF
# Source text: • 1) Cell line: HEK293-Tet^OFF-TRPV1 • 2) Media: MEM (Invitrogen) • 3) 10% Tet-FBS (Clontech #8630-1) • 4) Fungizone (Gibe #15290-018 (100X)) • 5) Penn/Strep (Gibco #15140-122 (100X)) • 6) Geneticin (Gibco #10131-027 (100X)) • 7) Hygromycin (Clontech #8057-1) • 8) Doxycycline (Clontech #8634-1) • 9) Trypsin/EDTA (Gibco #25200-056) • 10) 100 mm cell culture plates (Falcon #3003) • 11) 96-well poly-D-lysine plates (Fisher #08-774-256) • 12) Hank's Balanced Salt Solution (HBSS) (GIBCO #14025-092) • 13) HEPES Buffer (GIBCO #15630-080) • 14) 30% BSA (Research Organics #1334A) • 15) Probenecid (Sigma P-8761) • 16) Fluo-4, AM (50 μg) (Molecular Probes F-23917) • 17) Pluronic F-127 20% (Molecular Probes P-3000). • 18) capsazepine (Sigma C-191) • 19) capsaicin (Sigma M-2028) • 20) compound plates (NUNC #442587) • 21) black pipet tips 96-well FLIPR (Robbins Scientific 1043-24-0) • 22) Additional reagents available from Fisher: methanol, DMSO, NaOH Reagent Preparation: 1) Cells: HEK293-Tet^OFF-TRPV11
# • and Doxycycline 2.5 μg/mL final (from a 1000× stock in PBS) • Cells must be fed and/or split every 2-3 days (to maintain transcriptional repression with Doxycycline). • Must be split no more than 1:5 (50-75% confluency) to maintain growth and viability. • Grown on regular tissue culture plates (e.g Falcon 3003-100 mm) • Split cells via Trypsin/EDTA: incubate with trypsin at room temperature no longer than 5 minutes (HEK293 cells have a tendency to ball up if over trypsinized). • Two days prior to assay, the cells are split into 96-well plates in cell media in the absence of doxycycline at a concentration of 40,000 cells/well in a volume of 200 μL. 2) FLIPR buffer is prepared fresh:
# For assay: • a) Dilute stock by adding 0.8 μL into 1 mL of MeOH (final=80 uM). • b) Add 50 μL of diluted stock to 20 mL of FLIPR buffer (final=0.2 uM) • c) Agonist solution is added 150 μL/well to 96-well plate. • d) Final agonist concentration on cells will be 50 nM. (˜EC80) 6) Compound Plate preparation: • a) Compound plate is filled with 150 μL/well of FLIPR buffer • b) 3 μL of compound mixtures (1 mg/mL) is added to each well (represents a 3× solution and final DMSO=0.67%) Assay Procedure: • 1) Media is removed from cells grown in 96-well dishes. • 2) 100 μL of Fluo-4 containing FLIPR buffer in pipetted into each well. • 3) Plates are incubated for 30-60 minutes at 37° C. in 5% CO2 incubator. • 4) Plates are then washed three times with 100 μL of FLIPR buffer. • 5) 100 μL of FLIPR buffer is left in each well and plate is incubated at 37° C. for at least 20 minutes. • 6) Signal of dye-labeled plate is initially determined using laser at 0.300 W with an exposure time of 0.4 seconds. Laser is adjusted upwards for an average signal≧10,000/well and less than 10% variability. 7) Compound addition conditions are as follows: • FLIPR setup (dual sequence parameters): • Sequence 1: • First interval 1 sec/60 counts • Second interval 6 sec/50 counts • Fluid addition=50 μL • Pipettor height 110 μL • Dispense Speed=30 μL/sec • Sequence 2: • Second interval 1 sec/60 counts • Second interval 6 sec/40 counts • Fluid addition=50 μL • Pipettor height=140 μL • Dispense Speed=50 μL/sec Data Analysis: • 1) Data from both additions is reported as Max-Min for each well
# T2 sequence (O35433 whole entry): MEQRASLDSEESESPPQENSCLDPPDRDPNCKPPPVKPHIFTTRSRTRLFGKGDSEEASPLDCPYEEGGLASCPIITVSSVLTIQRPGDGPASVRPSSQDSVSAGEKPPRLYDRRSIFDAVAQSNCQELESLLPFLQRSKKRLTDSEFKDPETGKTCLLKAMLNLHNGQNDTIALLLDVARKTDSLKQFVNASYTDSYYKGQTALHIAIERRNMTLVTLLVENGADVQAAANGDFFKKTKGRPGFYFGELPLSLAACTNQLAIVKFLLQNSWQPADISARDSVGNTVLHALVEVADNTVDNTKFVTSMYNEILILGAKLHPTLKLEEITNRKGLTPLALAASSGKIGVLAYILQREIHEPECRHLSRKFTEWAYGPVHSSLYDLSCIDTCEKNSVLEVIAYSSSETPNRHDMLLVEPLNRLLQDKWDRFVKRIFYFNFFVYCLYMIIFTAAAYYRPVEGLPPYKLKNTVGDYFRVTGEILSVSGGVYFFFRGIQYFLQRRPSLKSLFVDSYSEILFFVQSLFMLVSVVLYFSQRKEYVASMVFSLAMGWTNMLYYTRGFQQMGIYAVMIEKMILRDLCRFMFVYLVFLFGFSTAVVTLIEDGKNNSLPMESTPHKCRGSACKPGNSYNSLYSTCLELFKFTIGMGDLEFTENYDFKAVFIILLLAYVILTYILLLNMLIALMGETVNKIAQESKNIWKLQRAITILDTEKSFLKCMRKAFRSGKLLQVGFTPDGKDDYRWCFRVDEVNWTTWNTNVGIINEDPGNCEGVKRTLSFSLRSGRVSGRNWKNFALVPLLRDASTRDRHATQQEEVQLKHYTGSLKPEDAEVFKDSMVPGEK
Structure (SMILES),Ki (NPC1L1),Ki (human NPC1L1),rat VR1 % activation @ 3.3 ug/ml compound (rat VR1)
O=C(Nc1cccc(C(F)(F)F)c1)N1CCC2(CC1)C(=O)N(c1cncc(Cl)c1)C2c1ccccn1 (stereo not drawn) [drawing 661],,,61%
O=C(Nc1cc(F)cc(F)c1)N1CCC2(CC1)C(=O)N(c1cccc(Cl)c1)C2c1cccnc1 (stereo not drawn) [drawing 664],,,75%
"O=C(Nc1c(Cl)cccc1Cl)N1CCC2(CC1)C(=O)N(c1ccccc1)C2c1ccccc1 (single isomer, unassigned) [drawing 667]",18 µM,17.6 µM,

# The next lines start with the values.
Ki (NPC1L1),Ki (human NPC1L1),rat VR1 % activation @ 3.3 ug/ml compound (rat VR1),Structure (SMILES)
5.95 µM,10.1 µM,,Cc1cccc(Cl)c1NC(=O)N1CCC2(CC1)C(=O)N(c1ccc(F)cc1)C2c1ccc(Cl)cc1 (stereo not drawn)
1.52 µM,2.12 µM,,O=C(Nc1c(Cl)cccc1Cl)N1CCC2(CC1)C(=O)N(c1ccccc1)C2c1ccccc1 (stereo not drawn)
4.84 µM,6.41 µM,,O=C(Nc1c(Cl)cccc1Cl)N1CCC2(CC1)C(=O)N(c1ccc(F)cc1)C2c1ccc(Cl)cc1 (stereo not drawn)
0.782 µM,1.57 µM,,"O=C(Nc1c(Cl)cccc1Cl)N1CCC2(CC1)C(=O)N(c1ccccc1)C2c1ccccc1 (single isomer, unassigned) [drawing 666]"
